Values of other authors in patent publication EP1815850B1, “Controlled release formulation of divalproic acid and its derivatives” (TEVA PHARMACEUTICAL INDUSTRIES LTD., priority 2006, dated 2007).

Conditions: in adults

**Q.** For `CCCC(CCC)C(=O)O` [valproic acid, 2-Propylpentanoic acid], which elimination half-life is on record?
**A.** Its elimination half-life is “six and seventeen”.
